Assay results: US8877968B2, “Melanocortin receptor modulators, process for preparing them and use there in human medicine and cosmetics” (Galderma Research & Development, priority 2008, dated 2014)

How the values were obtained:
[1] = system: B6.Cg-Ay mice; assay: Modulation of the pigmentation of hair during regrowth after depilation in mice; assay type: in vivo; settings: female B6.Cg-Ay mice; 5% in ethanol applied topically every day for 11 days after depilation; chromametry 19 days after depilation; smaller L = darker hair
Text: FIG. 2 is a bar graph showing the modulation of the pigmentation of hair during regrowth after depilation in mice, where the L value measures color on a scale where the smaller the value of L, the darker the hair, for two compounds of the invention diluted in ethanol and applied topically each day for 11 days after depilation.
Modulation of the Pigmentation of Hair During Regrowth After Depilation in Mice: (Results in Table of FIG. 2)
Female 8-week-old B6.Cg-Ay mice are shaved and then subjected to depilation with cold wax under gaseous anaesthesia to synchronize all the hair follicles at the start of the anagenic phase.
After depilation, the MC1R agonists diluted to 5% in ethanol are applied topically every day to the depilated area for 11 days. Nineteen days after depilation, the pigmentation of the hairs is measured by chromametry on the area of regrowth: the L value measures the colour on a scale ranging from black to white (the smaller the value of L, the darker the hair).

[2] = molecular target: T1, hMC1R (Homo sapiens, UniProt Q01726); assay: Transactivation test (CRE-Luc luciferase, agonist mode); assay type: cell-based; settings: HEK293 transfected with pCRE-Luc and hMC1R; products tested alone (agonist), 6 hours; normalized to NDP-MSH 10 nM = 100%; read-out: EC50 hMC1-R
T1 construct: expressed in transfected cells; host or cells: HEK293
Experimental: The lines HEK293 are transfected with vectors pCRE-Luc and hMC1R. The cells are cultured at 37° C. and 5% CO2, in DMEM medium supplemented with 10% foetal calf serum.
In the presence of an activator (agonist), the melanocortin receptor will activate the cAMP pathway, which, via the vector CRE-Luc, will lead to the synthesis of luciferase. After addition of a lysis buffer containing a luminescent luciferase substrate, the luminescence proportional to the degree of activation or inhibition of receptor may be measured.
The products are dissolved at 10 mM in DMSO. They are tested as a response dose at 0.1% of DMSO final. The range comprising 10 points and a zero starts at 10 μM with four-fold dilutions. To test agonists, the products are tested alone. To determine the antagonist behaviour, the products of interest are tested in the presence of 1 nM NDP-MSH (reference agonist). The cells are inoculated at a rate of 5000 cells per well (384-well plate) in serum-free DMEM medium and incubated overnight at 37° C. and 5% CO2.
The products and the reference ligand (NDP-MSH) are added the following day and the plates are reincubated for 6 hours at 37° C. and 5% CO2. After adding the lysis buffer containing luciferin, the plates are read in a Top-Count machine. […] An EC50 is calculated for each product using the XLFit software. […]

[3] = Test of metabolic stability in the presence of liver microsomes; assay type: in vitro ADME; settings: liver microsomes 0.5 mg/ml, product 10 μM, 37° C., pH 7.4, NADP/G6P cofactors; disappearance of parent by LC/MS/MS; species not given; read-out: t½
Experimental: Test of Metabolic Stability in the Presence of Liver Microsomes
The microsomes are cellular endoplasmic reticulum vesicles obtained after purification, from liver tissue. They contain membrane enzymes (Cytochromes P450) involved in oxidative metabolism (phase I).
In a buffered reaction medium at 37° C., the test product is incubated in the presence of microsomes from different species. Samples of the incubate are taken at different times (kinetics). Quantification by LC/MS/MS analysis makes it possible to measure the disappearance of parent product associated with the phase I liver metabolism.
The products are dissolved at 10 mM in DMSO. They are incubated at 10 μM in the presence of microsomes (0.5 mg/ml). The reaction medium is formed from 100 mM phosphate buffer at pH 7.4, G6PDH (0.4 U/ml), 0.01% Pluronic acid and cofactors MgCl2 5 mM, NADP and G6P (1.3 mM and 3.3 mM, respectively). Samples of the reaction medium are taken at 0, 5, 10, 15, 30 and 60 minutes. At each time, the enzymatic reaction is stopped by adding methanol. After centrifugation (3000 rpm, 30 minutes), the samples are analysed by LC/MS/MS. The concentration of parent product remaining is quantified over time and allows a half-life to be calculated for each product.

[4] = Log P and Log D by HPLC-MS (octanol-water); assay type: physicochemical; settings: octanol/water (50/50 v/v); octanol-water 50/50, pH 6.5, LC/MS/MS
Text: Lod P and Loci D by HPLC-MS
Log P, also known as Log Kow, (octanol/water partition coefficient) enables characterization of the lipophilic nature of a molecule. Log P=Log(Coct/Cwater)
In contrast with Log P, Log D is a determination of a given pH.
Preparation of the Samples
The molecule at 10^−2M in DMSO is placed in an octanol-water mixture (50/50 volume/volume).
After stirring for ten hours, the sample is centrifuged and the two phases are separated in order to be analysed. The octanol phase is diluted in methanol before assay.
The concentrations of test molecule present in each phase are determined by an LC/MS/MS analysis. Log P=Log(areaoct*Dilution factor/areaaq)

T1 sequence (Q01726 whole entry): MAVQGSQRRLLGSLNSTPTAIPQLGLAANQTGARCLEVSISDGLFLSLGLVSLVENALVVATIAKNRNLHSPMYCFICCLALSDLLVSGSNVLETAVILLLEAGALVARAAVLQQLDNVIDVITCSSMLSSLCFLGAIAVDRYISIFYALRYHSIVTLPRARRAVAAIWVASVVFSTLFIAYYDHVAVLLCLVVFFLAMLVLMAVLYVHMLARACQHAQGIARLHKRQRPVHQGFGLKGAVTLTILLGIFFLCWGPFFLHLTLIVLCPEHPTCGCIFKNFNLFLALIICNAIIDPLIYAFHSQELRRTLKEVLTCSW

## CCOC(=O)C1(C2CCCCC2)CCN(C(=O)[C@@H](Cc2ccc(OC)cc2)NC(=O)NCCc2c[nH]cn2)CC1 [Compound 34, Ethyl 4-cyclohexyl-1-[(R)-2-{3-[2-(1H-imidazol-4-yl)ethyl]-ureido}-3-(4-methoxyphenyl)propionyl]piperidine-4-carboxylate]
[1]
  Value of L at D19, Mean: 27.42
[2]
  EC50: 60 nM
[3]
  half-life at 10 μM: 3 to 4 min
[4]
  logD at 10 h: 4

## CCCC(=O)C1(C2CCCCC2)CCN(C(=O)[C@@H](Cc2ccc(OC)cc2)NC(=O)NCCc2c[nH]cn2)CC1 [Compound 40, 1-[(R)-2-(4-Butyryl-4-cyclohexylpiperidin-1-yl)-1-(4-methoxybenzyl)-2-oxoethyl]-3-[2-(1H-imidazol-4-yl)ethyl]urea]
[1]
  Value of L at D19, Mean: 31.00
[2]
  EC50: 120 nM
[3]
  half-life at 10 μM: 3 to 4 min
[4]
  logD at 10 h: 4.8
